Key:
Assay in all cases: relative viability (nuclei count vs DMSO), 5 days (fraction); higher = more cells survive
NCI-H1734 = test system: NCI-H1734
Method in brief: (§1)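 A single step with final 0.05% Triton X-100, 1% formaldehyde and 1 ug/ml Hoechst fixed the cells and stained nuclei 5 days after treatment. Lung cancer cell lines in 1536-well plates had been treated by pin tool the day after seeding with one drug alone or a fixed anchor-drug dose plus five library-drug doses (not always all listed) in √10 steps, and nuclei were counted on 4× images. Relative viability is the ratio of nuclei in treated wells to nuclei in vehicle wells, taken as the median of duplicate plates.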

UMC-11 = test system: UMC-11
Method in brief: as §1

NCI-H2347 = test system: NCI-H2347
Method in brief: as §1

SK-LU-1 = test system: SK-LU-1
Method in brief: as §1

A-427 = test system: A-427
Method in brief: as §1

SW 1573 = test system: SW 1573
Method in brief: as §1

NCI-H1792 = test system: NCI-H1792
Method in brief: as §1

NCI-H2228 = test system: NCI-H2228
Method in brief: as §1

LC-2-ad = test system: LC-2-ad
Method in brief: as §1

NCI-H1915 = test system: NCI-H1915
Method in brief: as §1

RERF-LC-KJ = test system: RERF-LC-KJ
Method in brief: as §1

NCI-H1975 = test system: NCI-H1975
Method in brief: as §1

NCI-H23 = test system: NCI-H23
Method in brief: as §1

HCC-366 = test system: HCC-366
Method in brief: as §1

NCI-H1755 = test system: NCI-H1755
Method in brief: as §1

NCI-H1355 = test system: NCI-H1355
Method in brief: as §1

SK-MES-1 = test system: SK-MES-1
Method in brief: as §1

NCI-H2170 = test system: NCI-H2170
Method in brief: as §1

HCC-827 = test system: HCC-827
Method in brief: as §1

Compound: Cc1cn(-c2cc(NC(=O)c3ccc(C)c(Nc4nccc(-c5cccnc5)n4)c3)cc(C(F)(F)F)c2)cn1 [Nilotinib] + CC1(C)CCC(c2ccc(Cl)cc2)=C(CN2CCN(c3ccc(C(=O)NS(=O)(=O)c4ccc(N[C@H](CCN5CCOCC5)CSc5ccccc5)c(S(=O)(=O)C(F)(F)F)c4)cc3)CC2)C1 [Navitoclax] (partner 0.5 µM)
- relative viability (NCI-H1734; first compound 0.001 µM): 0.704
- relative viability (NCI-H1734; first compound 0.003162 µM): 1.03
- relative viability (NCI-H1734; first compound 0.01 µM): 1.06
- relative viability (NCI-H1734; first compound 0.03162 µM): 0.434
- relative viability (NCI-H1734; first compound 0.1 µM): 0.543
- relative viability (UMC-11; first compound 0.001 µM): 0.303
- relative viability (UMC-11; first compound 0.003162 µM): 0.303
- relative viability (UMC-11; first compound 0.01 µM): 0.317
- relative viability (UMC-11; first compound 0.1 µM): 0.301
- relative viability (NCI-H2347; first compound 0.001 µM): 0.81
- relative viability (NCI-H2347; first compound 0.003162 µM): 0.959
- relative viability (NCI-H2347; first compound 0.01 µM): 1.05
- relative viability (NCI-H2347; first compound 0.03162 µM): 0.662
- relative viability (NCI-H2347; first compound 0.1 µM): 0.695
- relative viability (SK-LU-1; first compound 0.001 µM): 0.703
- relative viability (SK-LU-1; first compound 0.003162 µM): 1.17
- relative viability (SK-LU-1; first compound 0.01 µM): 1.14
- relative viability (SK-LU-1; first compound 0.03162 µM): 0.582
- relative viability (SK-LU-1; first compound 0.1 µM): 0.827
- relative viability (A-427; first compound 0.001 µM): 0.984
- relative viability (A-427; first compound 0.01 µM): 0.998
- relative viability (A-427; first compound 0.03162 µM): 0.908
- relative viability (A-427; first compound 0.1 µM): 0.923
- relative viability (SW 1573; first compound 0.001 µM): 1.05
- relative viability (SW 1573; first compound 0.003162 µM): 1.23
- relative viability (SW 1573; first compound 0.01 µM): 1.14
- relative viability (SW 1573; first compound 0.03162 µM): 0.792
- relative viability (SW 1573; first compound 0.1 µM): 1.01
- relative viability (NCI-H1792; first compound 0.001 µM): 0.523
- relative viability (NCI-H1792; first compound 0.01 µM): 0.907
- relative viability (NCI-H1792; first compound 0.1 µM): 0.794
- relative viability (NCI-H2228; first compound 0.001 µM): 0.662
- relative viability (NCI-H2228; first compound 0.003162 µM): 1.1
- relative viability (NCI-H2228; first compound 0.01 µM): 0.927
- relative viability (NCI-H2228; first compound 0.03162 µM): 0.826
- relative viability (NCI-H2228; first compound 0.1 µM): 0.763
- relative viability (LC-2-ad; first compound 0.001 µM): 0.376
- relative viability (LC-2-ad; first compound 0.003162 µM): 0.396
- relative viability (LC-2-ad; first compound 0.01 µM): 0.467
- relative viability (LC-2-ad; first compound 0.03162 µM): 0.339
- relative viability (LC-2-ad; first compound 0.1 µM): 0.365
- relative viability (NCI-H1915; first compound 0.001 µM): 0.764
- relative viability (NCI-H1915; first compound 0.003162 µM): 0.813
- relative viability (NCI-H1915; first compound 0.01 µM): 0.807
- relative viability (NCI-H1915; first compound 0.03162 µM): 0.751
- relative viability (NCI-H1915; first compound 0.1 µM): 0.781
- relative viability (RERF-LC-KJ; first compound 0.001 µM): 1.07
- relative viability (RERF-LC-KJ; first compound 0.003162 µM): 0.949
- relative viability (RERF-LC-KJ; first compound 0.01 µM): 1.24
- relative viability (RERF-LC-KJ; first compound 0.03162 µM): 1.15
- relative viability (RERF-LC-KJ; first compound 0.1 µM): 1.08
- relative viability (NCI-H1975; first compound 0.001 µM): 0.904
- relative viability (NCI-H1975; first compound 0.003162 µM): 1.22
- relative viability (NCI-H1975; first compound 0.01 µM): 1.34
- relative viability (NCI-H1975; first compound 0.03162 µM): 0.694
- relative viability (NCI-H1975; first compound 0.1 µM): 0.976
- relative viability (NCI-H23; first compound 0.001 µM): 0.78
- relative viability (NCI-H23; first compound 0.003162 µM): 0.839
- relative viability (NCI-H23; first compound 0.01 µM): 1.09
- relative viability (NCI-H23; first compound 0.03162 µM): 0.605
- relative viability (NCI-H23; first compound 0.1 µM): 0.721
- relative viability (HCC-366; first compound 0.001 µM): 1.07
- relative viability (HCC-366; first compound 0.01 µM): 1.62
- relative viability (HCC-366; first compound 0.03162 µM): 0.696
- relative viability (HCC-366; first compound 0.1 µM): 0.744
- relative viability (NCI-H1755; first compound 0.001 µM): 0.969
- relative viability (NCI-H1755; first compound 0.003162 µM): 1.1
- relative viability (NCI-H1755; first compound 0.01 µM): 1.08
- relative viability (NCI-H1755; first compound 0.03162 µM): 0.83
- relative viability (NCI-H1755; first compound 0.1 µM): 0.93
- relative viability (NCI-H1355; first compound 0.001 µM): 1
- relative viability (NCI-H1355; first compound 0.003162 µM): 1.14
- relative viability (NCI-H1355; first compound 0.01 µM): 1.12
- relative viability (NCI-H1355; first compound 0.03162 µM): 0.928
- relative viability (NCI-H1355; first compound 0.1 µM): 0.893
- relative viability (SK-MES-1; first compound 0.001 µM): 1.17
- relative viability (SK-MES-1; first compound 0.003162 µM): 1.5
- relative viability (SK-MES-1; first compound 0.01 µM): 1.61
- relative viability (SK-MES-1; first compound 0.03162 µM): 1.1
- relative viability (SK-MES-1; first compound 0.1 µM): 1.29
- relative viability (NCI-H2170; first compound 0.001 µM): 0.483
- relative viability (NCI-H2170; first compound 0.003162 µM): 0.64
- relative viability (NCI-H2170; first compound 0.01 µM): 0.716
- relative viability (NCI-H2170; first compound 0.03162 µM): 0.56
- relative viability (NCI-H2170; first compound 0.1 µM): 0.771
- relative viability (HCC-827; first compound 0.001 µM): 1.02
- relative viability (HCC-827; first compound 0.003162 µM): 1.08
- relative viability (HCC-827; first compound 0.01 µM): 1.1
- relative viability (HCC-827; first compound 0.1 µM): 1

Source: the supplement of paper PMC10307832
